Reference: patent US9913812B2, “Methods for the treatment of skin neoplasms” (TEIKOKU PHARMA USA, INC., priority 2011, dated 2018)
Entries after “also recorded” stand apart in the source; their conditions may differ. Where two headings read alike, the source gives them in different places.

Key:
[1] = system: SKMEL28 human melanoma cell line; experiment: SKMEL28 melanoma xenograft tumor volume / growth in athymic mice; conditions: for tumor growth rates (in words) / tumor volume / tumor growth on the last day of the experiment (in words): compared to the no treatment group
Text: The SKMEL28 human melanoma cell line was obtained from ATCC and grown according to the vendor's instructions until a log growth phase was obtained. The cells were harvested from the culture vessel, washed once and re-suspended in serum free medium and matrigel mixed at a 1:1 ratio.
Female athymic (nu/nu) mice were used for in vivo animal studies. The mice were 7-8 weeks old at the time of tumor implantation. Six groups of mice were included in the study, with 10 animals in each group.
Mice were inoculated subcutaneously in the scapular area in a volume of 0.2 mL containing ˜10×10^6 SKMEL28 cells.
Tumor dimensions were measured twice a week with digital calipers and tumor volumes were calculated from the dimensions with the formula: Tumor Volume (m)=(a^2×b/2); where “a” was the smallest dimension and “b” was the largest dimension. […] Test article treatment was initiated on the same day as assignment to treatment groups. Tumor dimensions were measured and tumor volumes calculated every three days (at the same time as patch removal and application) for 21 days. Tumor volumes were also transformed into percent change in tumor volume using the formula: Percent Change TV=(TVi−TVo)/TVo×100%; where TV was tumor volume, TVi was the tumor volume at the measurement time and TVo was the initial tumor volume. Differences between treatment groups for both the raw tumor volumes and percent changes in tumor volume versus time data sets were evaluated with Two-way ANOVAs. Pair-wise differences between the no treatment and test article treatment groups on each measurement day were evaluated with post hoc Bonferroni's T-tests. In order to evaluate the growth rates of the tumors between treatments, straight lines were fitted through the different data sets (percent change in tumor volumes versus time) by least squares regression. Slopes of the lines were compared initially between all groups and then in a pair-wise fashion between the “no treatment” and “test article” treated groups using an F-test. In all cases, P values less than 0.05 were considered significant.
Test article administrations were initiated on the same day as treatment group assignments and according to the Experimental Grouping Table. Rasagiline administration consisted of either oral gavage (15 mg/kg PO, daily for 21 days) or topical transdermal patch treatment. Cisplatin was administered once-weekly via intraperitoneal injection. Transdermal patches were applied to the intrascapular (i.e., directly over the tumor) and chest areas and maintained in position with a single BandAid™. Fresh patches were applied to the same locations every third day. The skin was cleaned prior to the first patch application with clorehexadene and as necessary prior to repeat applications. […] Mice were conscious and lightly restrained for patch removal and application. The patches were 0.75 or 1.2 in^2.

[2] = Survival / mortality of tumor-bearing mice during treatment; type: in vivo
Procedure: The percentage of animal mortality and time of death was recorded for every group in the study. Animals were defined as moribund and euthanized if one or more of the following criteria were met: prolonged or excessive pain or distress as defined by clinical observations such as: prostration, hunched posture, paralysis/paresis, distended abdomen, ulcerations, abscesses, seizures and/or hemorrhages; loss of more than 20% of their body weight; if the tumor volumes exceeded 2,000 mm^3 or the tumors ulcerated, bled or produced exudates.
Survival of the animals was recorded for the entire experiment. If an animal died or was euthanized due to morbidity during the experiment, its day of death was designated as “1”. If an animal survived the entire time course of the experiment, the last day of observation was designated as a “0”. Survival data was analyzed using a Kaplan-Meier Survival analysis and survival curves were compared using a Log-rank test. P values less than 0.05 were considered significant.

[3] = Body weights of tumor-bearing mice during treatment; type: in vivo; conditions: for Difference in body weight (BW), Vehicle vs. Rasagiline PO / Difference in percent change in body weight (% BW), Vehicle vs. Rasagiline PO: 15 mg/kg PO daily
Procedure: Body weights were measured prior to dosing and every three days concurrent with tumor measurements for both patch removal/application and oral dosing. Body weights were transformed into percent change in body weight using the formula: […] […] Cisplatin was administered once-weekly via intraperitoneal injection.

in vivo = conditions: athymic nude, mouse, po, 15 mg/kg
Procedure: At the end of the 21-day treatment duration, 2 animals from each group were euthanized at each of the following time points by isoflurane inhalation (0.5, 1, 2, 4, 8, and 24 hours after the last administration of the test articles including the application of fresh transdermal patches). For the 15 mg/kg PO Rasagiline group, two mice were bled twice (cheek bleed and terminal cardiac) so that ten mice could supply blood samples for six time points. Blood samples were collected from these animals via cardiac puncture into blood collection tubes containing lithium heparin. The blood samples were processed within 30 minutes of collection by centrifugation to prepare plasma samples. The plasma was separated from the cellular fraction and frozen on dry ice. Plasma samples were stored at −80° C. until they were shipped to an analytical laboratory designated by the Sponsor.
To compare rasagiline exposure by both dosing routes, blood was collected from two animals at each time point by sparse sampling techniques via cardiocentesis prior to euthanasia. Two samples were collected each from two animals in the oral dose group by collecting the first sample from the submandibular vein at 0.25 hours and cardiocentesis at eight hours. Blood was collected from animals administered oral rasagiline at 0.25, 0.5, 1, 2, 4 and 8 hours after the last oral dose. Animals administered the transdermal patches had blood collected at 0.5, 1, 2, 4, and 24 hours on the last application day. Blood collected from animals in the naïve, vehicle, and placebo patch groups determined baseline values and were used for pre-dose levels. […] Mean values for each time point within the rasagiline groups were used to calculate the mean AUC(0-t) value. The AUC(0-8) derived for the oral rasagiline group was multiplied by three to estimate the AUC(0-24) exposure. The ratio of AUC(0-24) for each of the baseline transdermal groups was divided by the estimated oral AUC(0-24) to compare exposures between the two dosing routes.

[4] = oral administration (0.45 mg/kg), cited from earlier work
[5] = oral gavage 15 mg/kg, listed as rasagiline mesylate, 15 mg/kg
[6] = oral gavage 15 mg/kg, listed as rasagiline, 15 mg/kg

N.N.[Cl][Pt][Cl] [Cisplatin]
SLOPE, best-fit value of linear fit to percent changes in tumor volume versus time ([1]; 10 mg/kg IP every 7 days): 13.16
tumor growth rates (in words) ([1]; 10 mg/kg IP): significantly slowed; also recorded: significantly reduced tumor growth rates
reduction in the percent change in tumor volumes ([1]; 10 mg/kg IP, compared to the oral vehicle treatment, prior to death of the majority of the animals): 49%
survival versus No Treatment group (Logrank test; in words) ([2]; 10 mg/kg IP every 7 days): Yes
animals that died ([2]; 10 mg/kg IP every 7 days, group of 10, deaths on Days 13-17): 7 out of the 10
body weight loss (in words) ([3]; 10 mg/kg IP, versus any other treatment group): greater body weight loss

C#CCNC1CCc2ccccc21 (stereo not shown) [Rasagiline, N-propargyl-1-aminoindan]
SLOPE, best-fit value of linear fit to percent changes in tumor volume versus time ([1]; 15 mg/kg PO daily, 21 days): 26.64
Difference in percent change in tumor volume (% TV), Vehicle vs. Rasagiline 15 mg/kg PO ([1]; Day 1, 15 mg/kg PO daily): 0.0000%
Difference in tumor volume (TV), Vehicle vs. Rasagiline (15 mg/kg PO) ([1]; Day 1, 15 mg/kg PO daily): −0.2606
Difference in percent change in tumor volume (% TV), Vehicle vs. Rasagiline 15 mg/kg PO ([1]; Day 4, 15 mg/kg PO daily): −12.56%
Difference in tumor volume (TV), Vehicle vs. Rasagiline (15 mg/kg PO) ([1]; Day 4, 15 mg/kg PO daily): −15.03
Difference in percent change in tumor volume (% TV), Vehicle vs. Rasagiline 15 mg/kg PO ([1]; Day 7, 15 mg/kg PO daily): −36.19%
Difference in tumor volume (TV), Vehicle vs. Rasagiline (15 mg/kg PO) ([1]; Day 7, 15 mg/kg PO daily): −40.95
Difference in percent change in tumor volume (% TV), Vehicle vs. Rasagiline 15 mg/kg PO ([1]; Day 10, 15 mg/kg PO daily): −42.92%
Difference in tumor volume (TV), Vehicle vs. Rasagiline (15 mg/kg PO) ([1]; Day 10, 15 mg/kg PO daily): −50.83
Difference in percent change in tumor volume (% TV), Vehicle vs. Rasagiline 15 mg/kg PO ([1]; Day 13, 15 mg/kg PO daily): −71.82%
Difference in tumor volume (TV), Vehicle vs. Rasagiline (15 mg/kg PO) ([1]; Day 13, 15 mg/kg PO daily): −92.36
Difference in percent change in tumor volume (% TV), Vehicle vs. Rasagiline 15 mg/kg PO ([1]; Day 16, 15 mg/kg PO daily): −98.35%
Difference in tumor volume (TV), Vehicle vs. Rasagiline (15 mg/kg PO) ([1]; Day 16, 15 mg/kg PO daily): −128.8
Difference in percent change in tumor volume (% TV), Vehicle vs. Rasagiline 15 mg/kg PO ([1]; Day 22, 15 mg/kg PO daily): −153.3%
Difference in tumor volume (TV), Vehicle vs. Rasagiline (15 mg/kg PO) ([1]; Day 22, 15 mg/kg PO daily): −154.4
tumor volume / tumor growth on the last day of the experiment (in words) ([1]; oral gavage 15 mg/kg, 15 mg/kg): significantly reduced tumor volume
tumor growth rates (in words) [1, 5]: significantly reduced absolute tumor volumes as well as tumor growth rates
tumor volume / tumor growth on the last day of the experiment (in words) [1, 5]: significantly reduced absolute tumor volumes
tumor growth rates (in words) [1, 6]: significantly slowed; also recorded: significantly reduced tumor growth rates
tumor volume / tumor growth on the last day of the experiment (in words) [1, 6]: significant reductions in tumor growth
reduction in percent change in tumor volume ([1]; oral gavage 15 mg/kg, compared to the oral vehicle control): 22%
tumor growth rates (in words) ([1]; transdermal patch): significantly reduced absolute tumor volumes as well as tumor growth rates
tumor volume / tumor growth on the last day of the experiment (in words) ([1]; transdermal patch): significantly reduced absolute tumor volumes
survival (in words) ([2]; orally or transdermally, 21 days): survived to the end of the study; also recorded: survived the dosing period
Cmax (in vivo): 899 ng/mL
Tmax (in vivo): 15 min
concentration at 0.25 h (in vivo): 899 ng/mL
concentration at 0.5 h (in vivo): 370 ng/mL
concentration at 1 h (in vivo): 216 ng/mL
concentration at 2 h (in vivo): 82.5 ng/mL
concentration at 4 h (in vivo): 28.4 ng/mL
concentration at 8 h (in vivo): 19.9 ng/mL
time of mean maximal plasma concentration (in vivo): 15 min
AUC(0-t) (in vivo; Mean AUC(0-24)): 774 ng·h/mL
AUC(0-t) (in vivo; estimated exposure after 24 hours (AUC(0-8) multiplied by three)): 2320 ng·h/mL
Difference in body weight (BW), Vehicle vs. Rasagiline PO ([3]; Day 1): 0.4100
Difference in percent change in body weight (% BW), Vehicle vs. Rasagiline PO ([3]; Day 1): 0.0000%
Difference in body weight (BW), Vehicle vs. Rasagiline PO ([3]; Day 4): −0.1100
Difference in percent change in body weight (% BW), Vehicle vs. Rasagiline PO ([3]; Day 4): −2.229%
Difference in body weight (BW), Vehicle vs. Rasagiline PO ([3]; Day 7): 0.2200
Difference in percent change in body weight (% BW), Vehicle vs. Rasagiline PO ([3]; Day 7): −0.7052%
Difference in body weight (BW), Vehicle vs. Rasagiline PO ([3]; Day 10): 0.3400
Difference in percent change in body weight (% BW), Vehicle vs. Rasagiline PO ([3]; Day 10): −0.2490%
Difference in body weight (BW), Vehicle vs. Rasagiline PO ([3]; Day 13): 0.1700
Difference in percent change in body weight (% BW), Vehicle vs. Rasagiline PO ([3]; Day 13): −1.053%
Difference in body weight (BW), Vehicle vs. Rasagiline PO ([3]; Day 16): 0.2800
Difference in percent change in body weight (% BW), Vehicle vs. Rasagiline PO ([3]; Day 16): −0.4240%
Difference in body weight (BW), Vehicle vs. Rasagiline PO ([3]; Day 22): −0.5500
Difference in percent change in body weight (% BW), Vehicle vs. Rasagiline PO ([3]; Day 22): −4.072%
percent change in body weight (in words) ([3]; oral 15 mg/kg daily, compared with the no treatment group, 15 mg/kg): steadily reduced body weight from day 13 onwards
Maximum % of dose ([4]; Fat): 8.47 % of dose
Time to maximal exposure ([4]; Fat): 0.25
Maximum % of dose ([4]; Kidneys): 3.89 % of dose
Time to maximal exposure ([4]; Kidneys): 0.25
Maximum % of dose ([4]; Large intestine): 1.83 % of dose
Time to maximal exposure ([4]; Large intestine): 1
Maximum % of dose ([4]; Liver): 13.20 % of dose
Time to maximal exposure ([4]; Liver): 0.25
Maximum % of dose ([4]; Lung): 1.46 % of dose
Time to maximal exposure ([4]; Lung): 0.25
Maximum % of dose ([4]; Muscle): 24.11 % of dose
Time to maximal exposure ([4]; Muscle): 0.25
Maximum % of dose ([4]; Skin): 13.20 % of dose
Time to maximal exposure ([4]; Skin): 0.25
Maximum % of dose ([4]; Small intestine): 8.76 % of dose
Time to maximal exposure ([4]; Small intestine): 0.25
Maximum % of dose ([4]; Stomach): 4.73 % of dose
Time to maximal exposure ([4]; Stomach): 0.5
Maximum % of dose ([4]; Whole Blood): 4.54 % of dose
Time to maximal exposure ([4]; Whole Blood): 0.25
